Patent publication US5527820A, “Antibiotics having immunosuppressive activity, delaminomycins and processes for the production of the same” (priority 1992, dated 1996)
≈ marks a conversion by molar mass, not a printed value. Read-outs that look alike come from different tables or passages of the source.

Columns and labels:
[1] = tested on: spleen cells (T cells activated by Concanavalin A); assay: Inhibitory activity against blastogenesis and proliferation of spleen cells caused by mitogen (Con A); type: cell-based, mouse (CDF1); conditions: for IC50: read-out: IC50 (inhibition of blastogenesis and proliferation of spleen lymphocyte caused by Con A); for inhibition at 0.39 µg/mL: 0.39 μg/ml test compound; for inhibition at 6.25 µg/mL: 6.25 μg/ml test compound; for inhibition at 25 µg/mL: 25 μg/ml test compound; for inhibition at 100 µg/mL: 100 μg/ml test compound; for activity inhibitory to the reaction of proliferation of mouse spleen cells activated with Concanavalin A: in vitro, result in words
[2] = tested on: Trichophyton mentagrophytes F-15 (833); assay: MIC, agar plate dilution method; type: cell-based; conditions: 27° C., 42 hours, nutrient agar containing glucose
[3] = tested on: nylon wool-passed cells of spleen cells (responder cell; T cells); assay: Inhibitory activity to the mixed lymphocyte culture reaction; type: cell-based, rat (Fischer F344 responder; WKY stimulator); conditions: for inhibition at 1.56 µg/mL / inhibition at 0.1 µg/mL / inhibition at 0.39 µg/mL / inhibition at 6.25 µg/mL / inhibition at 25 µg/mL / inhibition at 100 µg/mL / IC50: Rattus norvegicus, T-cell; for inhibition at 1.56 µg/mL / inhibition at 0.1 µg/mL / inhibition at 0.39 µg/mL / inhibition at 6.25 µg/mL / inhibition at 25 µg/mL / inhibition at 100 µg/mL: read-out: Inhibition rate; for inhibition at 0.1 µg/mL: 0.10 μg/ml test compound; for inhibition at 0.39 µg/mL: 0.39 μg/ml test compound; for inhibition at 6.25 µg/mL: 6.25 μg/ml test compound; for inhibition at 25 µg/mL: 25 μg/ml test compound; for inhibition at 100 µg/mL: 100 μg/ml test compound; for IC50: 120 hours, 3H-thymidine incorporation, read-out: IC50 (inhibition of mixed lymphocyte culture reaction); for activity to inhibit the proliferation of the T cells (responder cell) in mixed lymphocyte culture reaction: in vitro, result in words
Pellicularia sasakii = assay: MIC, agar plate dilution method; type: cell-based; conditions: 27° C., 42 hours, nutrient agar containing glucose
Mouse leukemia P388D1 = assay: Inhibitory activity on proliferation of cancer cells; type: cell-based
Mouse melanoma B-16 = assay: as above; type: cell-based; conditions: B16
Xanthomonas citri = assay: MIC, agar plate dilution method; type: cell-based; conditions: 27° C., 42 hours, nutrient agar containing glucose
Experimental: (§1) Delaminomycins A, B, C, A2, B2 and C2 according to this invention further have an antibacterial activity against a variety of bacteria. The minimum growth inhibitory concentrations (MIC) (μg/ml) of the novel antibiotics of this invention on various bacteria and fungi as measured by the agar plate dilution method are shown in Table 5a, Table 5b, Table 5c and Table 5d below.
(§2) Evaluated after culturing at 27° C. for 42 hours in nutrient agar
(§3) medium containing glucose.

Cochliobolus miyabeanus = assay: MIC, agar plate dilution method; type: cell-based; conditions: Bipolaris oryzae; 27° C., 42 hours, nutrient agar containing glucose
Experimental: as §1, §2, §3

Human Lymphoma Jurkat = assay: Inhibitory activity on proliferation of cancer cells; type: cell-based
Piricularia oryzae = assay: microbe, parasite or virus in culture; type: cell-based; conditions: 42 h
[4] = tested on: Candida pseudotropicalis F-2; assay: MIC, agar plate dilution method; type: cell-based; conditions: Kluyveromyces marxianus, F2; 27° C., 42 hours, nutrient agar containing glucose
Mouse leukemia L-1210 = assay: Inhibitory activity on proliferation of cancer cells; type: cell-based; conditions: L1210
Candida Yu-1200 = assay: MIC, agar plate dilution method; type: cell-based; conditions: YU1200, 27° C., 42 hours, nutrient agar containing glucose
[5] = Absorption into the digestive tracts on oral administration; conditions: result in words
Candida tropicalis F-1 = assay: MIC, agar plate dilution method; type: cell-based; conditions: F1, 27° C., 42 hours, nutrient agar containing glucose
Solubility = conditions: result in words; for Solubility: various solvents
Candida albicans 3147 = assay: MIC, agar plate dilution method; type: cell-based; conditions: 27° C., 42 hours, nutrient agar containing glucose
Candida krusei F-5 = assay: MIC, agar plate dilution method; type: cell-based; conditions: Pichia kudriavzevii, F5; 27° C., 42 hours, nutrient agar containing glucose
Mouse leukemia EL-4 = assay: Inhibitory activity on proliferation of cancer cells; type: cell-based; conditions: EL4
[6] = tested on: Trichophyton asteroides 429; assay: MIC, agar plate dilution method; type: cell-based; conditions: 27° C., 42 hours, nutrient agar containing glucose
[7] = tested on: Saccharomyces cerevisiae F-7; assay: MIC, agar plate dilution method; type: cell-based; conditions: F7, 27° C., 42 hours, nutrient agar containing glucose
Aspergillus niger F-16 = assay: MIC, agar plate dilution method; type: cell-based; conditions: F16, 27° C., 42 hours, nutrient agar containing glucose
Gram-positive bacteria = assay: Antibacterial activity to Gram-positive bacteria; type: cell-based; conditions: result in words
Description: as §1

[8] = Mus musculus, T-cell, read-out: Inhibition rate

Row | SMILES | IC50 ([1]; Mus musculus, T-cell) | inhibition at 0.39 µg/mL [1, 8] | inhibition at 6.25 µg/mL [1, 8] | inhibition at 25 µg/mL [1, 8] | inhibition at 100 µg/mL [1, 8] | activity inhibitory to the reaction of proliferation of mouse spleen cells activated with Concanavalin A [1] | MIC [2] | inhibition at 0.1 µg/mL [3] | inhibition at 0.39 µg/mL [3] | inhibition at 6.25 µg/mL [3] | inhibition at 25 µg/mL [3] | inhibition at 100 µg/mL [3] | IC50 [3] | activity to inhibit the proliferation of the T cells (responder cell) in mixed lymphocyte culture reaction [3] | MIC (Pellicularia sasakii) | IC50 (Mouse leukemia P388D1) | IC50 (Mouse melanoma B-16) | MIC (Xanthomonas citri) | MIC (Cochliobolus miyabeanus) | IC50 (Human Lymphoma Jurkat) | other results
1 | CCC(O)C(C)/C=C/C=C/C(O)CC1C=CC2CC(C)CC(C)C2C1(C)C(=O)C1C(=O)NC(OC)C1=O (stereo not drawn) [Delaminomycin B] | 4 µg/mL (≈ 7.76 µM) | 0% | 77% | 69% | 70% | exhibit an activity inhibitory to the reaction of proliferation of mouse spleen cells | > 100 µg/mL | 12.1% | 27.9% | 95.1% | 95% | 93.2% | 1.1 µg/mL (≈ 2.13 µM) | have an activity to inhibit the reaction of proliferation of the T cells | > 50 µg/mL | 13.3 µg/mL (≈ 25.8 µM) | > 100 µg/mL | > 100 µg/mL | > 100 µg/mL | 8.2 µg/mL (≈ 15.9 µM) | inhibition at 1.56 µg/mL [3]: 58.4%; MIC (Piricularia oryzae): > 100 µg/mL; MIC [4]: > 100 µg/mL; IC50 (Mouse leukemia L-1210): 30 µg/mL (≈ 58.2 µM); MIC (Candida Yu-1200): > 100 µg/mL; absorption into the digestive tracts / oral absorption [5]: hardly absorbed into the digestive tracts; MIC (Candida tropicalis F-1): > 100 µg/mL; Solubility (Solubility): soluble in methanol but slightly soluble or insoluble in water, acetone, ethyl ether and n-hexane; Solubility in water (Solubility): barely soluble in water; MIC (Candida albicans 3147): > 100 µg/mL; MIC (Candida krusei F-5): > 100 µg/mL; IC50 (Mouse leukemia EL-4): 11.1 µg/mL (≈ 21.5 µM); MIC [6]: > 100 µg/mL; MIC [7]: > 100 µg/mL; MIC (Aspergillus niger F-16): > 100 µg/mL
2 | CCC(O)C(C)/C=C/C=C/C(O)CC1C=CC2CC(C)CC(C)C2C1(C)C(=O)C1C(=O)CNC1=O (stereo not drawn) [Delaminomycin C] | 1 µg/mL (≈ 2.06 µM) | 1% | 75% | 76% | 76% | exhibit an activity inhibitory to the reaction of proliferation of mouse spleen cells | > 100 µg/mL | 19.5% | 41.6% | 97.3% | 97.6% | 96.9% | 0.5 µg/mL (≈ 1.03 µM) | have an activity to inhibit the reaction of proliferation of the T cells | > 50 µg/mL | 3.1 µg/mL (≈ 6.38 µM) | 7.4 µg/mL (≈ 15.2 µM) | > 100 µg/mL | > 100 µg/mL | 1.2 µg/mL (≈ 2.47 µM) | inhibition at 1.56 µg/mL ([1]; Mus musculus, T-cell, 1.56 μg/ml test compound, read-out: Inhibition rate): 75%; inhibition at 1.56 µg/mL ([3]; 1.56 μg/ml test compound): 89%; antibacterial activity to Gram-positive bacteria (Gram-positive bacteria): antibacterial activity to Gram-positive bacteria; MIC (Piricularia oryzae): > 100 µg/mL; MIC [4]: > 100 µg/mL; IC50 (Mouse leukemia L-1210): 42 µg/mL (≈ 86.5 µM); MIC (Candida Yu-1200): > 100 µg/mL; absorption into the digestive tracts / oral absorption [5]: hardly absorbed into the digestive tracts; MIC (Candida tropicalis F-1): > 100 µg/mL; Solubility (Solubility): soluble in methanol but slightly soluble or insoluble in water, acetone, ethyl ether and n-hexane; Solubility in water (Solubility): barely soluble in water; MIC (Candida albicans 3147): > 100 µg/mL; MIC (Candida krusei F-5): > 100 µg/mL; IC50 (Mouse leukemia EL-4): 1.9 µg/mL (≈ 3.91 µM); MIC [6]: > 100 µg/mL; MIC [7]: > 100 µg/mL; MIC (Aspergillus niger F-16): > 100 µg/mL
